Among the data in the supplement of paper PMC10307832 are relative viability values, retold here.

Common to all, as to test: relative viability (nuclei count vs DMSO), 5 days (fraction); higher = more cells survive
Compound in the experiment “Neratinib + Luminespib”: CCOc1cc2ncc(C#N)c(Nc3ccc(OCc4ccccn4)c(Cl)c3)c2cc1NC(=O)/C=C/CN(C)C [Neratinib] + CCNC(=O)c1noc(-c2cc(C(C)C)c(O)cc2O)c1-c1ccc(CN2CCOCC2)cc1 [Luminespib] (partner 0.01 µM)
The method, boiled down:
(§1)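 Cells from lung cancer lines were seeded into 1536-well plates and, one day later, dosed by pin tool. Treatments were either a single drug or a fixed dose of an anchor drug with five library-drug doses (not always all listed) in √10 steps. After 5 days, nuclei were stained in a one-step fixation (final 0.05% Triton X-100, 1% formaldehyde, 1 ug/ml Hoechst) and counted on 4× images, and relative viability is the treated-to-vehicle nuclei ratio, as the median of duplicate plates.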

Compound in the experiment “Neratinib + Lapatinib”: CCOc1cc2ncc(C#N)c(Nc3ccc(OCc4ccccn4)c(Cl)c3)c2cc1NC(=O)/C=C/CN(C)C [Neratinib] + CS(=O)(=O)CCNCc1ccc(-c2ccc3ncnc(Nc4ccc(OCc5cccc(F)c5)c(Cl)c4)c3c2)o1 [Lapatinib] (partner 2 µM)
The method, boiled down:
as §1

Compound in the experiment “Neratinib + Decitabine”: CCOc1cc2ncc(C#N)c(Nc3ccc(OCc4ccccn4)c(Cl)c3)c2cc1NC(=O)/C=C/CN(C)C [Neratinib] + Nc1ncn([C@H]2C[C@H](O)[C@@H](CO)O2)c(=O)n1 [Decitabine] (partner 2 µM)
An outline of the steps:
as §1

Compound in the experiment “Neratinib + Olaparib”: CCOc1cc2ncc(C#N)c(Nc3ccc(OCc4ccccn4)c(Cl)c3)c2cc1NC(=O)/C=C/CN(C)C [Neratinib] + O=C(c1cc(Cc2n[nH]c(=O)c3ccccc23)ccc1F)N1CCN(C(=O)C2CC2)CC1 [Olaparib] (partner 8 µM)
An outline of the steps: as §1

In the case of NCI-H2405, the relative viability with Neratinib + Luminespib (first compound 0.01 µM) came out at 0.859; with Neratinib + Luminespib (first compound 0.03162 µM) it was 0.73; in the experiment with Neratinib + Luminespib (first compound 0.1 µM) it was 0.562; with Neratinib + Luminespib (first compound 0.3162 µM), 0.577; in the experiment with Neratinib + Luminespib (first compound 1 µM), 0.354; with Neratinib + Lapatinib (first compound 0.01 µM), 1.26. Further, the relative viability with Neratinib + Lapatinib (first compound 0.03162 µM) came out at 1.04; with Neratinib + Lapatinib (first compound 0.1 µM), 1.04; with Neratinib + Lapatinib (first compound 0.3162 µM) it was 1.16; in the experiment with Neratinib + Lapatinib (first compound 1 µM) it was 0.804; with Neratinib + Decitabine (first compound 0.01 µM), 0.799; with Neratinib + Decitabine (first compound 0.03162 µM), 0.74. Further, the relative viability in the experiment with Neratinib + Decitabine (first compound 0.1 µM) stood at 0.769; with Neratinib + Decitabine (first compound 0.3162 µM), 0.675; with Neratinib + Decitabine (first compound 1 µM), 0.669; in the experiment with Neratinib + Olaparib (first compound 0.01 µM), 0.892; with Neratinib + Olaparib (first compound 0.03162 µM) it was 0.93; with Neratinib + Olaparib (first compound 0.1 µM), 0.85. Moreover, the relative viability came out at 0.908 with Neratinib + Olaparib (first compound 0.3162 µM) and 0.619 in the experiment with Neratinib + Olaparib (first compound 1 µM).
For the cell line HCC-827, the relative viability was determined as 1.08 in the experiment with Neratinib + Luminespib (first compound 0.01 µM); 1.03 with Neratinib + Luminespib (first compound 0.03162 µM); 0.703 with Neratinib + Luminespib (first compound 0.1 µM); 0.176 with Neratinib + Luminespib (first compound 0.3162 µM); 0.18 in the experiment with Neratinib + Luminespib (first compound 1 µM); 0.223 with Neratinib + Lapatinib (first compound 0.01 µM). Further, the relative viability with Neratinib + Lapatinib (first compound 0.03162 µM) stood at 0.229; with Neratinib + Lapatinib (first compound 0.1 µM), 0.17; with Neratinib + Lapatinib (first compound 0.3162 µM) it was 0.174; with Neratinib + Lapatinib (first compound 1 µM), 0.165; in the experiment with Neratinib + Decitabine (first compound 0.01 µM), 0.375; with Neratinib + Decitabine (first compound 0.03162 µM), 0.354. Also, the relative viability was 0.271 with Neratinib + Decitabine (first compound 0.1 µM); 0.243 in the experiment with Neratinib + Decitabine (first compound 0.3162 µM); 0.217 with Neratinib + Decitabine (first compound 1 µM); 0.624 with Neratinib + Olaparib (first compound 0.01 µM); 0.763 in the experiment with Neratinib + Olaparib (first compound 0.03162 µM); 0.665 with Neratinib + Olaparib (first compound 0.1 µM). Moreover, the relative viability with Neratinib + Olaparib (first compound 0.3162 µM) is 0.272; in the experiment with Neratinib + Olaparib (first compound 1 µM), 0.107.
NCI-H322M: the relative viability was 0.852 with Neratinib + Luminespib (first compound 0.01 µM); 0.796 in the experiment with Neratinib + Luminespib (first compound 0.03162 µM); 0.701 in the experiment with Neratinib + Luminespib (first compound 0.1 µM); 0.392 in the experiment with Neratinib + Luminespib (first compound 0.3162 µM); 0.352 with Neratinib + Luminespib (first compound 1 µM); 0.587 in the experiment with Neratinib + Lapatinib (first compound 0.01 µM). The relative viability with Neratinib + Lapatinib (first compound 0.03162 µM) came to 0.569; in the experiment with Neratinib + Lapatinib (first compound 0.1 µM), 0.522; with Neratinib + Lapatinib (first compound 0.3162 µM), 0.567; with Neratinib + Lapatinib (first compound 1 µM), 0.449; with Neratinib + Decitabine (first compound 0.01 µM), 0.678; with Neratinib + Decitabine (first compound 0.03162 µM) it was 0.643. Moreover, the relative viability with Neratinib + Decitabine (first compound 0.1 µM) was 0.646; in the experiment with Neratinib + Decitabine (first compound 0.3162 µM) it was 0.558; in the experiment with Neratinib + Decitabine (first compound 1 µM), 0.39; with Neratinib + Olaparib (first compound 0.01 µM), 0.715; in the experiment with Neratinib + Olaparib (first compound 0.1 µM), 0.785; in the experiment with Neratinib + Olaparib (first compound 0.3162 µM), 0.512. Besides, the relative viability with Neratinib + Olaparib (first compound 1 µM) amounted to 0.415.
For the cell line HOP-62, the relative viability with Neratinib + Luminespib (first compound 0.01 µM) is 0.917; with Neratinib + Luminespib (first compound 0.03162 µM), 0.974; with Neratinib + Luminespib (first compound 0.1 µM), 0.893; with Neratinib + Luminespib (first compound 0.3162 µM) it was 0.884; in the experiment with Neratinib + Luminespib (first compound 1 µM), 0.927; in the experiment with Neratinib + Lapatinib (first compound 0.1 µM), 0.879. The relative viability with Neratinib + Lapatinib (first compound 0.3162 µM) came to 0.825; with Neratinib + Lapatinib (first compound 1 µM) it was 1.21; in the experiment with Neratinib + Decitabine (first compound 0.01 µM), 0.215; in the experiment with Neratinib + Decitabine (first compound 0.03162 µM), 0.222; with Neratinib + Decitabine (first compound 0.1 µM) it was 0.198; with Neratinib + Decitabine (first compound 1 µM), 0.215. For the same cell line, the relative viability with Neratinib + Olaparib (first compound 0.01 µM) was found to be 0.416; with Neratinib + Olaparib (first compound 0.03162 µM), 0.459; with Neratinib + Olaparib (first compound 0.1 µM), 0.367; in the experiment with Neratinib + Olaparib (first compound 0.3162 µM), 0.412; with Neratinib + Olaparib (first compound 1 µM) it was 0.344.
Consider HCC-44, for which the relative viability in the experiment with Neratinib + Luminespib (first compound 0.01 µM) was found to be 1.29; with Neratinib + Luminespib (first compound 0.03162 µM) it was 1.23; with Neratinib + Luminespib (first compound 0.1 µM), 0.989; with Neratinib + Luminespib (first compound 0.3162 µM) it was 1.07; with Neratinib + Luminespib (first compound 1 µM) it was 0.524; in the experiment with Neratinib + Lapatinib (first compound 0.01 µM) it was 1.04. The relative viability with Neratinib + Lapatinib (first compound 0.03162 µM) was found to be 1.15; in the experiment with Neratinib + Lapatinib (first compound 0.1 µM) it was 0.792; in the experiment with Neratinib + Lapatinib (first compound 0.3162 µM), 0.963; with Neratinib + Lapatinib (first compound 1 µM), 1.07; with Neratinib + Decitabine (first compound 0.01 µM), 0.993; with Neratinib + Decitabine (first compound 0.03162 µM), 0.983. In addition, the relative viability worked out at 0.897 with Neratinib + Decitabine (first compound 0.1 µM); 0.922 with Neratinib + Decitabine (first compound 0.3162 µM); 1.09 with Neratinib + Decitabine (first compound 1 µM); 1.04 with Neratinib + Olaparib (first compound 0.01 µM); 1.03 with Neratinib + Olaparib (first compound 0.03162 µM); 0.899 in the experiment with Neratinib + Olaparib (first compound 0.1 µM). The relative viability with Neratinib + Olaparib (first compound 0.3162 µM) worked out at 0.94; in the experiment with Neratinib + Olaparib (first compound 1 µM), 0.979.
